PubChem BioAssay (NCI)
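All cell lines were grown in 96-well plates and treated with compound for 48 hours. TGI: concentration producing complete growth inhibition.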

Columns and labels:
Experiment in all cases: growth of human tumour cells (NCI), 48 h
KM12 colon = tested on: KM12 colon
COLO 205 colon = tested on: COLO 205 colon
SNB-78 CNS = tested on: SNB-78 CNS
A549 NSCLC = tested on: A549 NSCLC
HCT-15 colon = tested on: HCT-15 colon
RXF 393 renal = tested on: RXF 393 renal
CCRF-CEM leukemia = tested on: CCRF-CEM leukemia
EKVX NSCLC = tested on: EKVX NSCLC
UACC-62 melanoma = tested on: UACC-62 melanoma
HCT-116 colon = tested on: HCT-116 colon
MALME-3M melanoma = tested on: MALME-3M melanoma
U251 CNS = tested on: U251 CNS
NCI-H226 lung = tested on: NCI-H226 lung
SN12C renal = tested on: SN12C renal
SR leukemia = tested on: SR leukemia
SK-MEL-5 melanoma = tested on: SK-MEL-5 melanoma
CAKI-1 renal = tested on: CAKI-1 renal
UACC-257 melanoma = tested on: UACC-257 melanoma
NCI-H460 lung = tested on: NCI-H460 lung
HT29 colon = tested on: HT29 colon

Row | SMILES | TGI (KM12 colon) [µM] | TGI (COLO 205 colon) [µM] | TGI (SNB-78 CNS) [µM] | TGI (A549 NSCLC) [µM] | TGI (HCT-15 colon) [µM] | TGI (RXF 393 renal) [µM] | TGI (CCRF-CEM leukemia) [µM] | TGI (EKVX NSCLC) [µM] | TGI (UACC-62 melanoma) [µM] | TGI (HCT-116 colon) [µM] | TGI (MALME-3M melanoma) [µM] | TGI (U251 CNS) [µM] | TGI (NCI-H226 lung) [µM] | TGI (SN12C renal) [µM] | TGI (SR leukemia) [µM] | TGI (SK-MEL-5 melanoma) [µM] | TGI (CAKI-1 renal) [µM] | TGI (UACC-257 melanoma) [µM] | TGI (NCI-H460 lung) [µM] | TGI (HT29 colon) [µM]
1 | CCOC(=O)c1ccc(N2C(=O)/C(=C/c3ccc(N(CCC#N)CCC#N)cc3)N=C2c2cc([N+](=O)[O-])ccc2Cl)cc1 | > 100 | > 100 | > 100 | > 100 | > 100 | > 100 | > 100 | > 100 | > 100 | > 100 | > 100 | > 100 | > 100 | > 100 | > 100 | > 100 | > 100 |  |  | 
2 | COC1CCC(O)C(CO)O1 (stereo unspecified) | > 100 |  | > 100 | > 100 | > 100 | > 100 | 77.3 | > 100 | > 100 | > 100 | 65.3 |  |  | > 100 | > 100 | > 100 |  | > 100 | > 100 | > 100
3 | NCC(=O)N[C@H]1c2ccsc2/C(=N/O)[C@H]1O |  | > 100 |  | > 100 | > 100 | > 100 | > 100 | > 100 | > 100 | > 100 | > 100 | > 100 | > 100 | > 100 | > 100 | > 100 | > 100 | > 100 | > 100 | > 100
